Where two headings read alike, the source gives them in different places.
What was measured:
[1] = system: HIV-1LAI; experiment: HIV-1 cell inhibition assay (p24 ELISA) in infected 12D7 cells; type: cell-based; conditions: HIV-1LAI infected 12D7 cells; 6 days; medium with drug changed after 3 days; Figure 2
Procedure: (§1) To investigate if Aba-S2-NFV1 and Aba-S2-DRV8 are effective against HIV-1 in cells, an in vitro HIV-1 titer assay was performed using the 12D7 cell line. 12D7 cells were infected with HIV-1LAI, and anti-HIV-1 activity was measured by monitoring p24 protein levels as previously described.[45],[46] First the stability of the prodrugs was monitored in PBS and cell culture media using UPLC–MS. […] Therefore, for the cell-based anti-HIV-1 experiments, the medium, with drugs, was changed every 3 days. […] (Figure 2). […] Thus, this difference in chemical connectivity leads to a difference in monomer release that may be responsible for the differences in anti-HIV-1 potency.
12D7 cells were grown in the identical medium for the cell culture medium stability studies. The cells in log-phase were pelleted and resuspended at 1 million cells per mL. 500 TCID50 HIV-1LAI was used to infect cells for 4 h using a known procedure.[45] These infected cells were plated at a density of 75 000 cells per mL in 48-well plates after three washes with the medium. Different concentrations of the compound of interest were added keeping the DMSO concentration at 0.05%. […] On the sixth day, the supernatant was analyzed using ELISA to quantify the amount of HIV-1 p24 (gag) protein generated in each sample.[46] […]

[2] = biological target: T1, P-gp (Homo sapiens, UniProt P08183); experiment: P-gp substrate accumulation assay (flow cytometry) in 12D7-MDR cells; type: cell-based; parameters: host or cells: 12D7-MDR cells (CD4+ T lymphocytes, kept under vincristine); conditions: for IC50: 12D7-MDR cells, 30 min, 1% DMSO
T1 sequence (P08183 whole entry): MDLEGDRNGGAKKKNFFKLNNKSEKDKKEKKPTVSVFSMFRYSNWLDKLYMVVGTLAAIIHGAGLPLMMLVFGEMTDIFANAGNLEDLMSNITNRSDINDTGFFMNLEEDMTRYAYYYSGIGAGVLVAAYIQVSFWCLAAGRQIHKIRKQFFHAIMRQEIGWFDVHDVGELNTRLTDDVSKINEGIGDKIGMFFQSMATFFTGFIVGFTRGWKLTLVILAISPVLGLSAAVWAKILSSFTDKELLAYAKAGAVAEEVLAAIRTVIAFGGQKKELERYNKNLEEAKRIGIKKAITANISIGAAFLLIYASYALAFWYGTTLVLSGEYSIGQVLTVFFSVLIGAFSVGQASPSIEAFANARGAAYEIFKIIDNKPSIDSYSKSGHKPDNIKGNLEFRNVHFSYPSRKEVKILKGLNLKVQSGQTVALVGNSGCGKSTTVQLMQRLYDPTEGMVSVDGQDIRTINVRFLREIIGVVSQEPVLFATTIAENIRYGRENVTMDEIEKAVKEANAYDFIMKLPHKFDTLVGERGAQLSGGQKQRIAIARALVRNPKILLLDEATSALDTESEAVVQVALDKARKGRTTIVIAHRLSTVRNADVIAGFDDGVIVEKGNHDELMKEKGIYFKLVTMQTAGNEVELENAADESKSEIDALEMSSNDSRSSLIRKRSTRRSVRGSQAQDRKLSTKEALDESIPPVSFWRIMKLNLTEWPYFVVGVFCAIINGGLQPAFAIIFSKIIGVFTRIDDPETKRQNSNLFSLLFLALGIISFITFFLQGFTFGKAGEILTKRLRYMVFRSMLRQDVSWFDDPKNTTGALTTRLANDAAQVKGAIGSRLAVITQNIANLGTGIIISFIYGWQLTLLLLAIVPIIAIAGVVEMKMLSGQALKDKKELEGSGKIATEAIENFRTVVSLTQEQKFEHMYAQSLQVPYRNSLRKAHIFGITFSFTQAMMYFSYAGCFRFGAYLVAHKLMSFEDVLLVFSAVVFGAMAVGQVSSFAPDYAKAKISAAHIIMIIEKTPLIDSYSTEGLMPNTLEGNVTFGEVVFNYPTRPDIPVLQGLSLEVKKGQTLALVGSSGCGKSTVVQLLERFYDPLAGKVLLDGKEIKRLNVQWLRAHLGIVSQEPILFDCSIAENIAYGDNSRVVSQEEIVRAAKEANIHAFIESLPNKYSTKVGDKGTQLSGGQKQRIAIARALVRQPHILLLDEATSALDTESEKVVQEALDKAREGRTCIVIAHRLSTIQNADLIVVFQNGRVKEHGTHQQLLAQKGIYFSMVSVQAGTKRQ
Source text: (§2) One of the goals of the designed TH heterodimers is to inhibit P-gp-mediated efflux. A substrate accumulation assay was used to evaluate the potency of Aba-S2-NFV1 and Aba-S2-DRV8 as P-gp inhibitors using the P-gp substrates calcein-AM and NBD-Aba.[38],[39] Two cell lines were used to monitor the accumulation of these fluorescent P-gp substrates: 12D7-MDR cells which are CD4+ T lymphocytes with overexpression of P-gp,[40] and hCMEC/D3 cells as an in vitro BBB model cell line.[41] hCMEC/D3 cells are an immortalized human brain capillary endothelial cell line that expresses endogenous levels of P-gp.[42],[43] Inhibition of P-gp efflux was measured by monitoring the increase in cellular fluorescence with added heterodimer by flow cytometry.
(§3) The growth of cells was maintained at 37 °C in 5% CO2. hCMEC/D3 cells were cultured according to literature protocols with minor modifications.[41]
(§4) Flow cytometry was used to estimate P-gp inhibition using a substrate accumulation assay as described previously with some minor changes.[38] […] The cells were harvested by centrifugation at 300g at 4 °C for 7 min. The supernatant was carefully removed, and 400 μL of cold, sterile PBS was added to the cell pellet. […] The mean fluorescence value for each concentration corresponded to 10 000 cells. Each sample was run in duplicate, and all the experiments were run in duplicates on two different days. The average fluorescence accumulated in the cells for samples was used to plot the mean fluorescence vs concentration, and the IC50 values were estimated using GraphPad Prism.

[3] = in vitro; type: cell-based; conditions: human
Procedure: An MTT assay was used to determine the cell toxicity of Aba-S2-NFV1 and Aba-S2-DRV8 in the 12D7-MDR cell lines after 24 h.[44]
The viability of 12D7-MDR cells in the presence of a TH heterodimer (Aba-S2-NFV1 or Aba-S2-DRV8) was measured using the standard MTT assay.[44] 20 000 12D7-MDR cells were plated in 96-well plate in 100 μL of cell medium. After 12 h, TH heterodimer in medium was added to each well to give a final concentration of 5, 10, and 20 μM (1% DMSO). After 24 h 20 μL of MTT in PBS (5 mg/mL) was added to all the wells and incubated for 2.5 h. The 96-well plates were centrifuged at 300g for 7 min, followed by careful removal of supernatant. 100 μL of DMSO was added to dissolve the formazan. The absorbance of the DMSO solution was read using a plate reader at 590 nm. Cell viability was reported as the ratio of absorbance of cells treated with TH heterodimer relative to cells treated with DMSO.

[4] = Reversion of TH heterodimers into monomers in a reducing environment (DTT or GSH), UPLC-MS; type: physicochemical; conditions: ratio of t1/2 values (DTT)
Procedure: The breakdown of the TH heterodimers with DTT and glutathione (GSH) and the release of monomers were monitored using UPLC–MS at various time points. The reduction of the heterodimers to free thiols occurs rapidly, with full reduction observed within 1 h. Upon appearance of free thiols, the subsequent rearrangement led to the generation of the component monomeric drugs. […] This significant difference in monomer release is likely due to the differences in the chemical connectivity of the monomers. NFV, as described above, is connected to the tether via a phenolic moiety, whereas DRV is linked by a secondary alcohol. The better leaving group ability of the phenol versus the secondary alcohol likely leads to the observed difference in monomer regeneration.
Stability studies with DTT and GSH were adapted from a previously published protocol with some changes.[32] […] When monitoring NFV and DRV release, an aliquot of the reaction mixture was taken at different time points and directly analyzed by UPLC–MS. […] The time points were analyzed using RP-UPLC with a C18 column consisting of solvent A (water and 0.1% formic acid) and solvent B (acetonitrile and 0.1% formic acid), a gradient of 5–95% of solvent B over 10 min, and a flow rate of 0.5 mL/min. […]

[5] = Stability of prodrugs in PBS and cell culture media; type: physicochemical; conditions: 37 °C
Procedure: as §1
The cell media stability studies for the TH heterodimers (Aba-S2-NFV1 or Aba-S2-DRV8) were carried out following a previously published protocol with some modifications.[32] Heterodimers (100 μM) were incubated at 37 °C in the cell medium used for 12D7 cells (complete RPMI 1640 medium with 50 units/mL of penicillin and 50 μg/mL streptomycin, 5 mM of L-glutamine, and 10% FBS) with 1% DMSO. Every 24 h ice-cold acetonitrile with 4-methoxybenzyl alcohol (1.0 mM) was added to an aliquot of the reaction mixture (1:1). The resultant solution was vortexed for 1 min, sonicated for 10 min, and centrifuged twice at 10 000g for 10 min each. The supernatant was stored at −80 °C. All samples were analyzed using a C8 analytical column (Phenomenex, USA) on RP-HPLC with eluent consisting of solvent A (water and 0.05% TFA) and solvent B (acetonitrile and 0.05% TFA). A gradient of 15–75% solvent B over 30 min with a flow rate of 1.2 mL/min and UV detection at 254 nm was used. The assays were performed in duplicate.

[6] = biological target: T1, P-gp; experiment: P-gp substrate accumulation assay (flow cytometry) in hCMEC/D3 cells; type: cell-based
Source text: as §2, §3, §4

[7] = system: P-gp; conditions: cited from earlier work
[8] = NBD-Aba 5 μM, read-out: IC50, inhibition of P-gp mediated efflux of NBD-Aba
[9] = calcein-AM 0.25 μM, read-out: IC50, inhibition of P-gp mediated efflux of calcein-AM
[10] = NBD-Aba 5 μM, 30 min, 1% DMSO, read-out: IC50, inhibition of P-gp mediated efflux of NBD-Aba
[11] = calcein-AM 0.25 μM, 30 min, 1% DMSO, read-out: IC50, inhibition of P-gp mediated efflux of calcein-AM

SMILES	anti-HIV-1 activity (HIV-1 p24 levels) [1]	IC50 [2, 8] [µM]	IC50 [2, 9] [µM]	viability at 24 h, 20 µM [3] [%]	IC50 [6, 10] [µM]	IC50 [6, 11] [µM]	further results
Cc1c(OC(=O)CCCSSCCCC(=O)OC[C@@H]2C=C[C@H](n3cnc4c(NC5CC5)nc(N)nc43)C2)cccc1C(=O)N[C@@H](CSc1ccccc1)[C@H](O)CN1C[C@H]2CCCC[C@H]2C[C@H]1C(=O)NC(C)(C)C [Aba-S2-NFV1, abacavir-S2-nelfinavir-1]	superior potency as compared to Aba-S2-DRV8	0.65 ± 0.09	0.77 ± 0.05	> 95	0.41 ± 0.06	0.59 ± 0.07	fold increase in inhibition of P-gp as compared to the monomeric PI (NFV or DRV) ([2]; ratio of IC50 values of Table 1, 12D7-MDR and hCMEC/D3 cells, calcein-AM and NBD-Aba): 3- to 12 fold; fold faster release of NFV from Aba-S2-NFV1 than DRV release from Aba-S2-DRV8 [4]: 18 fold; prodrug intact ([5]; after 1 week): greater than 95%
Nc1nc(NC2CC2)c2ncn([C@H]3C=C[C@@H](CO)C3)c2n1 [Aba, abacavir]							increase of brain accumulation in P-gp null mice as compared to wild-type mice ([7]; P-gp null mice vs wild-type mice): 20 fold
CC(C)CN(C[C@@H](OC(=O)CCCSSCCCC(=O)OC[C@@H]1C=C[C@H](n2cnc3c(NC4CC4)nc(N)nc32)C1)[C@H](Cc1ccccc1)NC(=O)O[C@H]1CO[C@H]2OCC[C@H]21)S(=O)(=O)c1ccc(N)cc1 [Aba-S2-DRV8, abacavir-S2-darunavir-8]	less potent than the 1:1 mixture of Aba and DRV	0.51 ± 0.08	0.5 ± 0.04	70	0.09 ± 0.02	0.08 ± 0.02	stability of prodrug beyond 3 days [5]: decomposition observed after day 4; prodrug intact ([5]; after 3 days): greater than 95%; IC50 ([6]; calcein-AM and NBD-Aba substrates, read-out: IC50 values, inhibition of P-gp efflux): 0.08 to 0.09 µM
Cc1c(O)cccc1C(=O)N[C@@H](CSc1ccccc1)[C@H](O)CN1C[C@H]2CCCC[C@H]2C[C@H]1C(=O)NC(C)(C)C [NFV, nelfinavir]							increase of brain accumulation in P-gp null mice as compared to wild-type mice ([7]; mouse, not told): 36 fold
CC(C)CN(C[C@@H](O)[C@H](Cc1ccccc1)NC(=O)O[C@H]1CO[C@H]2OCC[C@H]21)S(=O)(=O)c1ccc(N)cc1 [DRV, darunavir, reference compound]		60 ± 9.4	33.2 ± 6.5		15.4 ± 3.2	6.6 ± 1.9	

From paper PMC7073916, “Potential Tools for Eradicating HIV Reservoirs in the Brain: Development of Trojan Horse Prodrugs for the Inhibition of P-Glycoprotein with Anti-HIV-1 Activity” (Journal of Medicinal Chemistry, 2019)
